In data set [1] the target is T1, Insulin-degrading enzyme (Homo sapiens, UniProt P14735).
T1 sequence (P14735 whole entry): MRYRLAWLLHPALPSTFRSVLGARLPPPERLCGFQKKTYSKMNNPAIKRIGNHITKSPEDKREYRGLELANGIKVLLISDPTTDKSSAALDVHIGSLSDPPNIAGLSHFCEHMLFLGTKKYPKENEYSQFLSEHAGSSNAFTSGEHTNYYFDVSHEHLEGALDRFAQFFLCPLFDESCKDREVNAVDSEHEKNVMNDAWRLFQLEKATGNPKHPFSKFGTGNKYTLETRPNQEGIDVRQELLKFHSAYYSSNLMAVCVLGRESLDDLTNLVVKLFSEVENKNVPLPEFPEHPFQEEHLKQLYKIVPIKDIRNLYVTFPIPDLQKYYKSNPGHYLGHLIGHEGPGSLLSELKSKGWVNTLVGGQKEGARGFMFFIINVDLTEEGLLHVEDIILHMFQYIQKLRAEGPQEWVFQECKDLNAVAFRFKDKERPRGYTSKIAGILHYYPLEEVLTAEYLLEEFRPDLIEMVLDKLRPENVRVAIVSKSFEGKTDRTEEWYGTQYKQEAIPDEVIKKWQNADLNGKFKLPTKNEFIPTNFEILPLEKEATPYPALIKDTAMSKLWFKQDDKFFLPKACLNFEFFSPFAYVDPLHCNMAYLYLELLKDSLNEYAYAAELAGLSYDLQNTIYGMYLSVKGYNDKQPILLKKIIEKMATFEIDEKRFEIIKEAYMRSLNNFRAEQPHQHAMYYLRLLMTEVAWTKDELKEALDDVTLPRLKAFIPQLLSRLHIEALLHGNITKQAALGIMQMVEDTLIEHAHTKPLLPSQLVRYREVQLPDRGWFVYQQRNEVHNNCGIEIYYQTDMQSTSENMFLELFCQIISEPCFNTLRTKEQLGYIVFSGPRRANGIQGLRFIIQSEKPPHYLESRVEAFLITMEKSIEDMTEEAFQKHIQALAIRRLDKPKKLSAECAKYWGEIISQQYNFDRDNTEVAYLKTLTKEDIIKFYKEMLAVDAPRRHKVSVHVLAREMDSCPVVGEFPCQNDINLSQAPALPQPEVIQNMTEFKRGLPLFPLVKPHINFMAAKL
As to the kind of experiment: recombinant IDE activation, cell-free – biochemical, fluorescence polarization, counter-screen for IDE activator project, dose response (AID 588681). In general terms: In fluorescence polarisation assays a small probe gives low polarisation when free and higher when bound to something large.

For data set [2], the system named is HEK293. As to the kind of experiment: optical interference in Abeta FP readout, dose response, artefact control for IDE activator project, biochemical, fluorescence polarization (AID 588442). The format is functional, cell-based. The settings on record: Homo sapiens.
The test system of data set [3] is HEK293. Put plainly: membrane integrity loss in HEK cells – cell-based, fluorescence, cytotoxicity control for IDE activator project, dose response (AID 588440).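 Further: cytotoxicity by LDH release measuring loss of membrane integrity.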 The settings on record: Homo sapiens. The format is functional.
Data set [4] has as its target T1, Insulin-degrading enzyme. Put plainly: cellular IDE activation of Abeta substrate cleavage – fluorescence polarization, HEK cells, dose response (AID 588439). The data set is classed as functional, cell-based.
In the next data set the target is Cytochrome P450 2C9 (Homo sapiens, UniProt P11712).
In a further data set the target is Cytochrome P450 2D6 (Homo sapiens, UniProt P10635).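 Further: CYP2D6 member of a cytochrome P450 panel assay.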
The target of the next data set is Cytochrome P450 2C19 (Homo sapiens, UniProt P33261). Put plainly: Cytochrome panel assay with activity outcomes. Panel member name: p450-cyp2c19 Compounds with AC50 equal or less than 10 uM are considered active. The settings on record: read-out: AC50. The data set is classed as functional.
For data set [5], the target named is DNA dC->dU-editing enzyme APOBEC-3A (Homo sapiens, UniProt P31941). As to the kind of experiment: SAR analysis of small molecule inhibitors of APOBEC3A DNA Deaminase via a fluorescence-based single-stranded DNA deaminase assay. The data set is classed as functional. The settings on record: read-out: IC50_Mean.
Data set [6] has as its target DNA dC->dU-editing enzyme APOBEC-3G (Homo sapiens, UniProt Q9HC16). As to the kind of experiment: inhibition of APOBEC3G ssDNA deamination – biochemical, fluorescence, single-stranded DNA substrate, SAR follow-up (AID 602136). The format is functional. The settings on record: read-out: IC50_Mean.
Data set [7] deals with T2, Sentrin-specific protease 8 (Homo sapiens, UniProt Q96LD8).
T2 sequence (Q96LD8 whole entry): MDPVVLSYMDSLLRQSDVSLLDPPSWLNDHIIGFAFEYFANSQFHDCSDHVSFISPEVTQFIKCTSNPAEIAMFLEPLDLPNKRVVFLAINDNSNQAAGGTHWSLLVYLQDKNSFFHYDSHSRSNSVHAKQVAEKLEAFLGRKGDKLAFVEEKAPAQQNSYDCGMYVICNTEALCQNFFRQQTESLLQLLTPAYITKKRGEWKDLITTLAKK
Put plainly: inhibition of human SENP8 cleavage activity – biochemical, luminescence, SAR follow-up (AID 504501). The data set is classed as functional.

The target in data set [8] is T2, Sentrin-specific protease 8. Put plainly: inhibition of sentrin protease 8 – biochemical, luminescence, set 2, SAR follow-up (AID 588601). The format is functional.
Data set [9] deals with T3, Sentrin-specific protease 7 (Homo sapiens, UniProt Q9BQF6).
T3 sequence (Q9BQF6 whole entry): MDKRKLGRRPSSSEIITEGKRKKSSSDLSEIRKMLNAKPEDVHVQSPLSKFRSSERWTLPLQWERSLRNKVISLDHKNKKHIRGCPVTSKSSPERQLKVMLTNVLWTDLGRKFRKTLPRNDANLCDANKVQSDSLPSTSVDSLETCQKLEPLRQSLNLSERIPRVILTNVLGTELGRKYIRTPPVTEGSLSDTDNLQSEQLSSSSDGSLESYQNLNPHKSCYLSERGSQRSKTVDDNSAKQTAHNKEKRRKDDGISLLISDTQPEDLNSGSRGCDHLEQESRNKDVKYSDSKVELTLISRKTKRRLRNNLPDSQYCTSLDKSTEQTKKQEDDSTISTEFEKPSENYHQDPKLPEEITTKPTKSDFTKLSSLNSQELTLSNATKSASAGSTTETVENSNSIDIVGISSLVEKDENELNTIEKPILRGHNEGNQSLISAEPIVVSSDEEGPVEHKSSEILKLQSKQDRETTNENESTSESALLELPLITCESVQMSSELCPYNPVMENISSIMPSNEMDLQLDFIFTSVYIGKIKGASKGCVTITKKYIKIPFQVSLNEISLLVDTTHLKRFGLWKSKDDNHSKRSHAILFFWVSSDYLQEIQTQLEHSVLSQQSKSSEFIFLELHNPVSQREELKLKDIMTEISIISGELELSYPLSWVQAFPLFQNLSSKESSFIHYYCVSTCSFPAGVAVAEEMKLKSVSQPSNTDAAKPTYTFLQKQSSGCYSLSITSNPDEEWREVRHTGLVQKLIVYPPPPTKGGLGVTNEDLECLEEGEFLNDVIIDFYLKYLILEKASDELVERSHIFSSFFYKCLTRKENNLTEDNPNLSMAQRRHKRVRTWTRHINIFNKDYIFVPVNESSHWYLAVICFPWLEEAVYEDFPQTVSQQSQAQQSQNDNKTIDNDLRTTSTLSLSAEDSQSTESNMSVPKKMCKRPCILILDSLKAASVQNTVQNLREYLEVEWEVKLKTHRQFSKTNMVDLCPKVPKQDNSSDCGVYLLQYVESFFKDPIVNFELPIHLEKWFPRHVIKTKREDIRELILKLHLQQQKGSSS
Put plainly: inhibition of human SENP7 cleavage activity – biochemical, luminescence, set 2, SAR follow-up (AID 588600). The format is functional.

For data set [10], the target named is T3, Sentrin-specific protease 7. As to the kind of experiment: inhibition of human SENP7 cleavage activity – biochemical, luminescence, SAR follow-up (AID 504497). The format is functional.
Data set [11] addresses T4, Caspase-3 (Homo sapiens, UniProt P42574).
T4 sequence (P42574 whole entry): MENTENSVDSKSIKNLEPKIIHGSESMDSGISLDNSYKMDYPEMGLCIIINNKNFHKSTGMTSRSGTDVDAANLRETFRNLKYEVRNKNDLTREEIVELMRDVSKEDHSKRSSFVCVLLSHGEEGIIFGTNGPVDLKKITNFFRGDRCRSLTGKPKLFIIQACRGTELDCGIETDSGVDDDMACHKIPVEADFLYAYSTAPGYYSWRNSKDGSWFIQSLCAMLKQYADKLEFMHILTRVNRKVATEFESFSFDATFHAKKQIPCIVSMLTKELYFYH
Put plainly: SAR Analysis of small molecule inhibitors of Sentrin-specific proteases (SENPs) using a Caspase-3 Selectivity assay. [Related pubchem assays (depositor defined):AID2540, AID2599, AID434973, AID489001]. The format is functional.

Data set [12] has as its target T4, Caspase-3. Put plainly: inhibition of recombinant caspase-3 activity – biochemical, luminescence, set 2, selectivity assay for SENP protease inhibitor project, SAR follow-up (AID 588599). The data set is classed as functional.
Data set [13] concerns the target T5, Sentrin-specific protease 6 (Homo sapiens, UniProt Q9GZR1).
T5 sequence (Q9GZR1 whole entry): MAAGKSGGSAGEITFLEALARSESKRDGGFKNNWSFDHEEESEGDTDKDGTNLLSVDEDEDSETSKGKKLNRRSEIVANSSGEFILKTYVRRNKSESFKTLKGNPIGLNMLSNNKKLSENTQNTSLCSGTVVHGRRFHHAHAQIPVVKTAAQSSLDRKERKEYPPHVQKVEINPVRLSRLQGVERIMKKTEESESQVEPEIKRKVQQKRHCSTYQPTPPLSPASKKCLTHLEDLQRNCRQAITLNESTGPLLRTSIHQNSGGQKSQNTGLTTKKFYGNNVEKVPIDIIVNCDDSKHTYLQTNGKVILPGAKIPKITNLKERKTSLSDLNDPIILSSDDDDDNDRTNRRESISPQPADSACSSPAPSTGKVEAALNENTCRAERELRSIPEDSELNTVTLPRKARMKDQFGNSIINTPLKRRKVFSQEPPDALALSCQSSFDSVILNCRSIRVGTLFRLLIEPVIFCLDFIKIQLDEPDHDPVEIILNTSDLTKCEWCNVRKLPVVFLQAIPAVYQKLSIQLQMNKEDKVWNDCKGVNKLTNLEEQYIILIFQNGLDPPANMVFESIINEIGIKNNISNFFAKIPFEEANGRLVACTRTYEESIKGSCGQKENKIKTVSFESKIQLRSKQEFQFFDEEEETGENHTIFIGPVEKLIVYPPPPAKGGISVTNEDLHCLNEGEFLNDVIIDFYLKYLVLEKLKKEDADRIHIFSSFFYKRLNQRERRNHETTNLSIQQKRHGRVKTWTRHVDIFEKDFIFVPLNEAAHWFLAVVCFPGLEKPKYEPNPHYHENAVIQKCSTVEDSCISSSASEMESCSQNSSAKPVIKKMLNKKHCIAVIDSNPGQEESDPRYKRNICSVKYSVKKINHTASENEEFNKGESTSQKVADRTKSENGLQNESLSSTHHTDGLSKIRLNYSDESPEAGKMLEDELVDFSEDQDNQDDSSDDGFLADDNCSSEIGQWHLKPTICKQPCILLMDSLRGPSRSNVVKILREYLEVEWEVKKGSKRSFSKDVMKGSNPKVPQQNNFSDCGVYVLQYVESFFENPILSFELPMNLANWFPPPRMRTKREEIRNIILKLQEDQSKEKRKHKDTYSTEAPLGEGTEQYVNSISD
Put plainly: SAR Analysis of small molecule inhibitors of Sentrin-specific protease 6 (SENP6) using a Luminescent assay. [Related pubchem assays (depositor defined):AID2582, AID2599]. The format is functional.

For data set [14], the target named is T5, Sentrin-specific protease 6. Put plainly: inhibition of human SENP6 catalytic domain – biochemical, luminescence, set 2, SAR follow-up (AID 588598). The format is functional.

Calls of active or inactive are those of the source.

Sequence of DNA dC->dU-editing enzyme APOBEC-3A (P31941 whole entry): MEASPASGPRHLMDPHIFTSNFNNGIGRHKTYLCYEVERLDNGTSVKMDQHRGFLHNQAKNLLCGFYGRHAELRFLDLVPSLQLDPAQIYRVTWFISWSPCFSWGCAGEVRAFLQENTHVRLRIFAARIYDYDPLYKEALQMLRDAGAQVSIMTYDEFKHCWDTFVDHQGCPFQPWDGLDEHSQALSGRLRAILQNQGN
Sequence of DNA dC->dU-editing enzyme APOBEC-3G (Q9HC16 whole entry): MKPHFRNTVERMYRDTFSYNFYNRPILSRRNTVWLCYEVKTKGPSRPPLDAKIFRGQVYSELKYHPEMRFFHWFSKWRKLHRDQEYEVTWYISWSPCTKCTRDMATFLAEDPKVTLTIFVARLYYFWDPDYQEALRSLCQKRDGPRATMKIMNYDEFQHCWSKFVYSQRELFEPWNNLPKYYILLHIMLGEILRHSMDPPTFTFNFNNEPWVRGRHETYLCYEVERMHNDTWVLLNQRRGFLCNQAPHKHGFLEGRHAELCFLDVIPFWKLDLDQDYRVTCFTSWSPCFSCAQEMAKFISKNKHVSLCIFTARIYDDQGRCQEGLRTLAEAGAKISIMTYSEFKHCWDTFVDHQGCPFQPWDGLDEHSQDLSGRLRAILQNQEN
Sequence of Cytochrome P450 2D6 (P10635 whole entry): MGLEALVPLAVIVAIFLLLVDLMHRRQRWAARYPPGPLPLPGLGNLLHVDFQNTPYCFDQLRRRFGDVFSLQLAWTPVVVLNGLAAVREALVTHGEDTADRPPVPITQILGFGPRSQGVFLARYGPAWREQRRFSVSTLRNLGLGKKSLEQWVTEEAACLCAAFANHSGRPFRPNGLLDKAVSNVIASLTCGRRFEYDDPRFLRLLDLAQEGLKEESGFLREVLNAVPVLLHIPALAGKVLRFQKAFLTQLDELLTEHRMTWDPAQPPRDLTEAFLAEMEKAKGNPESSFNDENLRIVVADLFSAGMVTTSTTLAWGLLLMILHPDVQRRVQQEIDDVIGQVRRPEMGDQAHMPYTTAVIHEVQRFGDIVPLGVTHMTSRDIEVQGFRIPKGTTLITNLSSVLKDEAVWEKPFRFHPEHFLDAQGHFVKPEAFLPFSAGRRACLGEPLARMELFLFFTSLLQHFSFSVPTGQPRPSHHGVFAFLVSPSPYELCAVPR
Sequence of Cytochrome P450 2C19 (P33261 whole entry): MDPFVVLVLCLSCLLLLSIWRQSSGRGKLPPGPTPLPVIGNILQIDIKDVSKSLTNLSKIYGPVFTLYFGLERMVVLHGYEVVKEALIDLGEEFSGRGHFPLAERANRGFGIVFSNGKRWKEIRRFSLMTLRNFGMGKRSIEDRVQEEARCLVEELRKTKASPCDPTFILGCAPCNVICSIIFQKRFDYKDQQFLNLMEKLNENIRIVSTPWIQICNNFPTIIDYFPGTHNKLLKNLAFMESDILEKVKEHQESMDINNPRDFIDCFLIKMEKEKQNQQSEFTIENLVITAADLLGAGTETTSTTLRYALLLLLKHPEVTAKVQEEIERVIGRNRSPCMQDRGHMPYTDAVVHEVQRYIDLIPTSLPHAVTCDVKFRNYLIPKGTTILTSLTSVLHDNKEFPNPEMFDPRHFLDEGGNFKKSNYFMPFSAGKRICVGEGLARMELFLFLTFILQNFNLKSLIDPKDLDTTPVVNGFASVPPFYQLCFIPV
Sequence of Cytochrome P450 2C9 (P11712 whole entry): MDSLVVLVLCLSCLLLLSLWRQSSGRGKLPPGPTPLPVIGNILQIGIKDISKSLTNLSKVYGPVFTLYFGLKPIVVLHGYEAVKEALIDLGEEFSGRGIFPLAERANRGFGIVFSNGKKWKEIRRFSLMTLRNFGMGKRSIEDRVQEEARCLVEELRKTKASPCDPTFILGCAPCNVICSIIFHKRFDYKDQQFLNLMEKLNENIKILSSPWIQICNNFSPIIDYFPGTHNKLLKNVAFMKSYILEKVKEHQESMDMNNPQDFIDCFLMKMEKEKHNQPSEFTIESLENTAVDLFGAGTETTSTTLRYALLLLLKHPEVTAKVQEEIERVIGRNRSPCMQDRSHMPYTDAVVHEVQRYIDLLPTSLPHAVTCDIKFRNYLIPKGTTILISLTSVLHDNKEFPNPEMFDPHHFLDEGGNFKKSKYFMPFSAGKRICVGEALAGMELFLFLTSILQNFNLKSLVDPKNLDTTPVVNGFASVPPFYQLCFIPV

Regarding `O=C(Nc1ccc(-c2nc3ccccc3o2)cc1)c1ccc2c(c1)OCO2`, the EC50 is > 54.7 µM (inactive) on Insulin-degrading enzyme [1], > 55.9 µM (inactive) in the data set with HEK293 [2] and > 54.7 µM (inactive) at Insulin-degrading enzyme [4]. The IC50 in the data set on HEK293 [3] is > 9.91 µM (active).

For `C=CCSc1nnc(-c2cc3c(C(F)(F)F)nn(C)c3s2)n1C`, the values for the AC50 entry at Cytochrome P450 2C9, at Cytochrome P450 2D6 and at Cytochrome P450 2C19 were “inconclusive”, 17.8 µM (inconclusive) and 3.55 µM (inconclusive), respectively. Further, the IC50 in data set [5] was > 99 µM (inactive); in [6] it was 70.8 µM (inactive).

In the case of `C1CCCCCC(=NNc2nn[nH]n2)CCCCC1`, the EC50 is > 54.7 µM (inactive) at Insulin-degrading enzyme [1], > 56 µM (inactive) with HEK293 [2] and > 54.7 µM (inactive) at Insulin-degrading enzyme [4]. The IC50 in the data set with HEK293 [3] is > 89.2 µM (inactive).

In the case of `Cn1cccc1C(=O)Nc1nc2ccc(Cl)cc2s1`, the IC50 is 0.52 µM (active) in data set [7]; 0.619 µM (active) in data set [8]; 0.558 µM (active) in [9]; 0.49 µM (active) in data set [10]; 0.42 µM (active) on Caspase-3 [11]; 0.465 µM (active) at Caspase-3 [12]. Besides, the results for the IC50 in [13] and in data set [14] were 0.54 µM (active) and 0.652 µM (active), respectively.

Turning to `CCN1CCN(CCCNC(=O)C(=O)c2c[nH]c3ccccc23)CC1`, the IC50 (in [8]; in data set [9]; on Caspase-3 [12]; in data set [14]) was > 99 µM (inactive) throughout.

On to `Cc1cc(C(=O)Cn2ccccc2=O)c(C)n1Cc1ccccc1`, for which the IC50 in data set [5] and in data set [6] was > 99 µM (inactive) in each case.

As usually defined, the EC50 is the concentration that produces a half-maximal response. As usually defined, the AC50 is the concentration at which the activity in the assay is half-maximal.

The values above are taken from ChEMBL document CHEMBL1201862, “PubChem BioAssay data set” (2004).
